From patent US20250243196A1, “CITRON KINASE INHIBITORS” (The Cleveland Clinic Foundation, priority 2021, published 2025)

Assays:
[1] = target: T1, Citron kinase (Homo sapiens (Human), UniProt O14578); assay: Radiometric citron kinase assay (Eurofins Cat #16-040KP); format: biochemical; details: mean of at least two independent assays; read-out: Radiometric CitK IC50
In short: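 Radiometric KinaseProfiler format: test compound incubated with kinase, substrate, cofactors and radiolabelled ATP; unreacted ATP washed away and radiolabelled phosphate incorporated into substrate measured. IC50 derived from inhibition of phosphorylation. Values are means of at least two independent assays.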

[2] = target: T1, Citron kinase; assay: TR-FRET citron kinase assay (Eurofins Cat #2628); format: biochemical; details: mean of at least two independent assays; read-out: TR-FRET CitK IC50
Excerpt: Compounds were screened for biochemical kinase activity (Eurofins Discovery, France) using one of two assays. […] All values in Table 1 are the mean of at least two independent assays.

[3] = target: NanoLuc-CITK (full-length human CITK) (Homo sapiens (Human), UniProt O14578); assay: NanoBRET intracellular target engagement assay; format: cell-based; details: for IC50: HEK293T cells transfected with NanoLuc-CITK, Tracer K10 1 μM, 2 hours
Chain of NanoLuc-CITK (full-length human CITK) (O14578 other isoform, or with tags, fused parts or gaps): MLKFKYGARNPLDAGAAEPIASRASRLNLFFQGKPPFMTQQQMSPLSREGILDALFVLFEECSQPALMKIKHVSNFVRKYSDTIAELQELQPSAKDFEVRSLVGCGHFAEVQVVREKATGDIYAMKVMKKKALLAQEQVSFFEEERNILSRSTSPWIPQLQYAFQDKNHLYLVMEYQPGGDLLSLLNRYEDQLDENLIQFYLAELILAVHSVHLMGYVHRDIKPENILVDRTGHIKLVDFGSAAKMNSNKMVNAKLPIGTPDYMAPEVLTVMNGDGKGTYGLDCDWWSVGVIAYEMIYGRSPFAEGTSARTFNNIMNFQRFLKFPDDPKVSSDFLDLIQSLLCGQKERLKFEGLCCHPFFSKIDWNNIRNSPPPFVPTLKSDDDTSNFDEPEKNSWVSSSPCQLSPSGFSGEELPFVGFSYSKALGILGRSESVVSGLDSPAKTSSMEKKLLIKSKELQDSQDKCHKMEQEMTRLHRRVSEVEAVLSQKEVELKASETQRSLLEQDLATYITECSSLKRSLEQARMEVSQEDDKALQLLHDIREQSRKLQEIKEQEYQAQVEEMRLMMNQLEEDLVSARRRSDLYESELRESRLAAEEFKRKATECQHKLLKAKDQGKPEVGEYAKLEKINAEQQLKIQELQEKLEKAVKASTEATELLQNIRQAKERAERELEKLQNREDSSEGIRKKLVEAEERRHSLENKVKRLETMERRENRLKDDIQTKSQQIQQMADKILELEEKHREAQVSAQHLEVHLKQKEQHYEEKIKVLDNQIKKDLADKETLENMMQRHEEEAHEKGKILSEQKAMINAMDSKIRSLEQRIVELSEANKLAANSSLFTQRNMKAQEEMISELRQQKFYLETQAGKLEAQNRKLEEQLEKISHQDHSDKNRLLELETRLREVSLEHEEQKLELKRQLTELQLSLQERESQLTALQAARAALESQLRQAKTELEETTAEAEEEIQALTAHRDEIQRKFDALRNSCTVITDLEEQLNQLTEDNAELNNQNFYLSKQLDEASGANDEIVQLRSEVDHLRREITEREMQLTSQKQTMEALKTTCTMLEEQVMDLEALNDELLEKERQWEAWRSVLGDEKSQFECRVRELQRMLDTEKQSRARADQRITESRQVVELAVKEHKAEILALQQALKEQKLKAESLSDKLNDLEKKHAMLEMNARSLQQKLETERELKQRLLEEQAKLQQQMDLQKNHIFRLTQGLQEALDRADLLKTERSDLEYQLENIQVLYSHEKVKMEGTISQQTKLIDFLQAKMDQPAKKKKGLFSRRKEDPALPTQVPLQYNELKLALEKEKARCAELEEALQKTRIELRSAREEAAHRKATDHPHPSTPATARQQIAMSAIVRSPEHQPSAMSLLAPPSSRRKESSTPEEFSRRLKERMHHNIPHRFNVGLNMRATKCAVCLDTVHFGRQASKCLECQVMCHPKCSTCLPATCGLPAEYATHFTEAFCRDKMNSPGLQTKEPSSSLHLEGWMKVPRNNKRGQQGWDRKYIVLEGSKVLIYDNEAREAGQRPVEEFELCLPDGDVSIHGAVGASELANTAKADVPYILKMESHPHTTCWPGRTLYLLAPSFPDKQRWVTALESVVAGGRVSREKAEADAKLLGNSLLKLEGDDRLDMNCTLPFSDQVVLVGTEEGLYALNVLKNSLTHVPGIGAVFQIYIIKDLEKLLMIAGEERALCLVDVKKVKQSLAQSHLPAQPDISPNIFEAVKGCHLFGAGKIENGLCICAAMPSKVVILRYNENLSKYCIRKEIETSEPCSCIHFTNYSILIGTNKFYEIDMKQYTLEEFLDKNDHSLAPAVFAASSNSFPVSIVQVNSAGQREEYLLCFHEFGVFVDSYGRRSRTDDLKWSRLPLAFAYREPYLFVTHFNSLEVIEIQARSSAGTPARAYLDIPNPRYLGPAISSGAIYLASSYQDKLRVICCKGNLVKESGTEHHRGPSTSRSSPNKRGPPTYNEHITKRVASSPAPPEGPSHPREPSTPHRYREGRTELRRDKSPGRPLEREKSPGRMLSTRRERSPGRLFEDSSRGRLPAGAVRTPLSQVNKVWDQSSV
Description: In-cell Kd values were evaluated with a NanoBRET Target Engagement Assay essentially as recommended by the manufacturer (Promega Corporation—for details see https://www.promega.com/resources/technologies/nanoluc-luciferase-enzyme/cellular-target-engagement/).
HEK293T cells were transfected with 5.0 μg/mL sterile NanoLuc-CITK DNA, 5.0 μg/mL Transfection Carrier DNA, and 30 μL/mL FugeneHD® (Promega) in Opti-Mem™ (Thermo) media at a cell density of 250,000 cells/mL. […] 5 μL of the 25× Tracer K10 solution was added to each well. Next, designated inhibitors were prepared from powder as 10 mM DMSO stocks and then further diluted to 10× the final assay concentration in Opti-Mem™. 12-pt dose-response curves were prepared by 3×-serial dilution. […] A 3× Complete Substrate+Inhibitor solution, containing 6 mL of Opti-Mem™, 36 μL of NanoBRET Nano-Glo Substrate, and 12 μL Extracellular NanoLuc Inhibitor was freshly prepared for each plate. 50 μL of the 3× Complete Substrate+Inhibitor solution was added to all wells and the plate was incubated for 2 min with 500 RPM shaking. The bottom of the plates were covered with black plate seals and then measured on a Cytation 5 plate reader (Biotek) with a NanoBRET Filter Cube (Biotek; 450/50 emission & 610LP emission). Background corrected BRET ratios (in mBU) were calculated in Excel and IC50's were subsequently extracted using four-parameter non-linear regression in GraphPad Prism 8.

[4] = target: ROCK-2 (Homo sapiens (Human), UniProt O75116); assay: KinaseProfiler radiometric assay (14-451KP); format: biochemical; details: mean of at least two independent experiments
Excerpt: (§1) In another aspect, disclosed is a method of inhibiting citron kinase in a sample, comprising contacting the sample with a compound described herein (e.g., a compound of formula (I) or a pharmaceutically acceptable salt thereof), or a pharmaceutical composition described herein (e.g., a pharmaceutical composition comprising a compound of formula (I) or a pharmaceutically acceptable salt thereof), in an amount effective to inhibit citron kinase. In some embodiments, the step of contacting the sample with the compound comprises administering the compound to a subject (e.g., a subject) suffering from cancer. Methods of determining kinase inhibition are well known in the art. For example, kinase activity of an enzyme and the inhibitory capacity of a test compound can be determined by measuring enzyme specific phosphorylation of a substrate. Commercial assays and kits can be employed. For example, kinase inhibition can be determined using a radiometric binding assay, such as using KinaseProfiler™ technology (Eurofins Discovery). This assay method directly detects product formation without the use of modified substrates or coupling enzymes. Test compounds are incubated with kinase, substrate, required cofactors and radioisotope labeled ATP. Following incubation, unreacted radioactive ATP is removed by washing and incorporation of the radiolabeled phosphate into the kinase substrate is assayed to detect phosphoryltransferase activity, which is directly proportional to the amount of phosphorylated substrate. Inhibition of the kinase by a kinase inhibitor prevents phosphorylation of the substrate and thereby limits the incorporation of radiolabeled phosphate. Such an assay is compatible with a microwell assay format, allowing simultaneous determination of IC50 of multiple compounds.
(§2) The effect of various compounds on the inhibition of other kinases has also been determined. Table 2 reports measured IC50 values; value units are nanomolar inhibition.

[5] = target: IKKβ (Homo sapiens (Human), UniProt O14920); assay: KinaseProfiler radiometric assay (14-485KP); format: biochemical; details: mean of at least two independent experiments
Excerpt: as §1, §2

[6] = target: AKT-1 (Homo sapiens (Human), UniProt P31749); assay: KinaseProfiler radiometric assay (14-276KP); format: biochemical; details: mean of at least two independent experiments
Chain of AKT-1 (P31749 whole entry): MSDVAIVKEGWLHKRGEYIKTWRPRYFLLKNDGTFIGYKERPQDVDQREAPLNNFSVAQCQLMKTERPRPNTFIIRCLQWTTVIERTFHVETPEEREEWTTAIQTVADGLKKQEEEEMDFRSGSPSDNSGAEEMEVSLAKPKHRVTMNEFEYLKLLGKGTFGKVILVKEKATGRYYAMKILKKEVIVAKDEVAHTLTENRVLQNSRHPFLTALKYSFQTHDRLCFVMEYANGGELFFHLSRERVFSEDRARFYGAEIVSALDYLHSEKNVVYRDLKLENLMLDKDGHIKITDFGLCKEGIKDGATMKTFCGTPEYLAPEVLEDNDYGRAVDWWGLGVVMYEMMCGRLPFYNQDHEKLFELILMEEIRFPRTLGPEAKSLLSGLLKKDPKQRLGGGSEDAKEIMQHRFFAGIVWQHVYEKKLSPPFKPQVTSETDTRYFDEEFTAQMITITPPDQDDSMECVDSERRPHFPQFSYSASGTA
Excerpt: as §1, §2

[7] = target: ROCK-1 (Homo sapiens (Human), UniProt Q13464); assay: KinaseProfiler radiometric assay (14-601KP); format: biochemical; details: mean of at least two independent experiments
Chain of ROCK-1 (Q13464 whole entry): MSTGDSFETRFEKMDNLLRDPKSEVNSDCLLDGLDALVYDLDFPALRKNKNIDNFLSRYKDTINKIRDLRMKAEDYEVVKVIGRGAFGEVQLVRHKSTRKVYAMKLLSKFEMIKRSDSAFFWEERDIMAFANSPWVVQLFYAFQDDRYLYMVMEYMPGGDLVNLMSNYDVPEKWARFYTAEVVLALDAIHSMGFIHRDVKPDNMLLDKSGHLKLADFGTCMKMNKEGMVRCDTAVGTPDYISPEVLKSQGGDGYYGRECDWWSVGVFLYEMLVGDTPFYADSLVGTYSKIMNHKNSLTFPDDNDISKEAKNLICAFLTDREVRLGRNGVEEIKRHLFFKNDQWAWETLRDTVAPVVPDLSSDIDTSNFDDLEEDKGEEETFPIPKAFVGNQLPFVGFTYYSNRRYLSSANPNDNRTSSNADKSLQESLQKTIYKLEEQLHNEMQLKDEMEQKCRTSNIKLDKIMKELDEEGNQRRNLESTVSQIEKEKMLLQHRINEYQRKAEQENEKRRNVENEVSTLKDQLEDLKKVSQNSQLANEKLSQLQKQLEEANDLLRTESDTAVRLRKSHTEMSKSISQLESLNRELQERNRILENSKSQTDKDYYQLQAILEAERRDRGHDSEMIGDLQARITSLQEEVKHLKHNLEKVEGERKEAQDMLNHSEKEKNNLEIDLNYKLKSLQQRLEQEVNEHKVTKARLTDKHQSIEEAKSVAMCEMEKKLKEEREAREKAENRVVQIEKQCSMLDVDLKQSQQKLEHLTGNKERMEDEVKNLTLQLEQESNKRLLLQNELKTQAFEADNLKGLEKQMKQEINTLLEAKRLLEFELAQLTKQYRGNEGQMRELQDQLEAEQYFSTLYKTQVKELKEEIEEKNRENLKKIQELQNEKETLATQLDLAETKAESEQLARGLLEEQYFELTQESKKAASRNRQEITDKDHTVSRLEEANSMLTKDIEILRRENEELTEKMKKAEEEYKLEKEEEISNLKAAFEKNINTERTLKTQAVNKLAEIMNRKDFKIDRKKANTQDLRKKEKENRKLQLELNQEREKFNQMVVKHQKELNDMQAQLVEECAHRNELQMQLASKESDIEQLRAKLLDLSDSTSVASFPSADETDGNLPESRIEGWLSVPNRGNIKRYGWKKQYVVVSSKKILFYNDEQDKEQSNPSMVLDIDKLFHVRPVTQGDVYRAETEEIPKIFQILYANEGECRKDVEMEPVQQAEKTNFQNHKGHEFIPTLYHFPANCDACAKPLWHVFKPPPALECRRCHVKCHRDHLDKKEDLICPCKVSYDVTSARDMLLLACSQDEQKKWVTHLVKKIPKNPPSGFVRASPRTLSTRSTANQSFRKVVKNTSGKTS
Excerpt: as §1, §2

[8] = target: AUR-B (Homo sapiens (Human), UniProt Q96GD4); assay: KinaseProfiler radiometric assay (14-835KP); format: biochemical; details: mean of at least two independent experiments
Chain of AUR-B (Q96GD4 whole entry): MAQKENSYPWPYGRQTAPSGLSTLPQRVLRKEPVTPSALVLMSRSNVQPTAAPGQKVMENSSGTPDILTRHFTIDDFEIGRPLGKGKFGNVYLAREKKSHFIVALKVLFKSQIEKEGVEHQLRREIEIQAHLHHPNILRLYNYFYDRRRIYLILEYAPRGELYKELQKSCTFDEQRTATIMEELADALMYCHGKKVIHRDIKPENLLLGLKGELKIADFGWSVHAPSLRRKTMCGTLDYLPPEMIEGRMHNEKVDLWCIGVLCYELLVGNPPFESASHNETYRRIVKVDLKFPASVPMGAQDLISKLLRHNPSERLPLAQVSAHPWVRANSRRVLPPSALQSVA
Excerpt: as §1, §2

[9] = target: PKAα (Homo sapiens (Human), UniProt P17612); assay: KinaseProfiler radiometric assay (14-440KP); format: biochemical; details: mean of at least two independent experiments
Excerpt: as §1, §2

[10] = target: TRK-B (Homo sapiens (Human), UniProt Q16620); assay: KinaseProfiler radiometric assay (14-507KP); format: biochemical; details: mean of at least two independent experiments
Chain of TRK-B (Q16620 32-822): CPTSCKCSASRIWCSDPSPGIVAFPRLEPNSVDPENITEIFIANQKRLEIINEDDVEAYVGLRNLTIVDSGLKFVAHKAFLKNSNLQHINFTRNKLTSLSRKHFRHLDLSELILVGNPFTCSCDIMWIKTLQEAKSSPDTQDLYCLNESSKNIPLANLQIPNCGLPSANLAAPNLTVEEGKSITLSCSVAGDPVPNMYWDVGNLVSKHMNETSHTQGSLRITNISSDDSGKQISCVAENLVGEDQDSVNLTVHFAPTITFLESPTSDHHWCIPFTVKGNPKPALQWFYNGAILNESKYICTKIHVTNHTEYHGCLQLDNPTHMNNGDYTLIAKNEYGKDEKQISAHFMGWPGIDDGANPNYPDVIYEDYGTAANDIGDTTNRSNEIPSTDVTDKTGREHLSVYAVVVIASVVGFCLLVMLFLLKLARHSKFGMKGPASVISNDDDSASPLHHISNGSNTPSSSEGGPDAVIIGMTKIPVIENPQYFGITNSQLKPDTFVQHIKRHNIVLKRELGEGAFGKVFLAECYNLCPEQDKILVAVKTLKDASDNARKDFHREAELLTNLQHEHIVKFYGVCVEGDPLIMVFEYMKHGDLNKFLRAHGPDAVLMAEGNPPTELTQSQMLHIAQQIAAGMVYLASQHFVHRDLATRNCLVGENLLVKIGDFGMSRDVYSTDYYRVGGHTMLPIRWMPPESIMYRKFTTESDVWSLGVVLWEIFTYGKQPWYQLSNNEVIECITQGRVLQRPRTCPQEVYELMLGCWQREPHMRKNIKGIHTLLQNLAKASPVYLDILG
Excerpt: as §1, §2

[11] = target: DRAK2 (Homo sapiens (Human), UniProt O94768); assay: KinaseProfiler radiometric assay (16-003KP); format: biochemical; details: mean of at least two independent experiments
Excerpt: as §1, with “In” for “In another aspect, disclosed is a method of inhibiting citron kinase in a sample, comprising contacting the sample with a compound described herein (e.g., a compound of formula (I) or a pharmaceutically acceptable salt thereof), or a pharmaceutical composition described herein (e.g., a pharmaceutical composition comprising a compound of formula (I) or a pharmaceutically acceptable salt thereof), in an amount effective to inhibit citron kinase. In”

[12] = target: HIPK4 (Homo sapiens (Human), UniProt Q8NE63); assay: KinaseProfiler radiometric assay (15-003KP); format: biochemical; details: mean of at least two independent experiments
Excerpt: as §1, with “Test compounds are incubated with kinase, substrate, required cofactors and radioisotope labeled ATP. Following incubation, unreacted radioactive ATP is removed by washing and incorporation of the radiolabeled phosphate into the kinase substrate is assayed to detect phosphoryltransferase activity, which is directly proportional to the amount of phosphorylated substrate. Inhibition of the kinase by a kinase inhibitor prevents phosphorylation of the substrate and thereby limits the incorporation of radiolabeled phosphate. Such an assay is compatible with a microwell assay format, allowing simultaneous determination of IC50 of multiple compounds.” left out
as §2

[13] = target: AAK1 (Homo sapiens (Human), UniProt Q2M2I8); assay: KinaseProfiler radiometric assay (16-043KP); format: biochemical; details: mean of at least two independent experiments
Excerpt: as §1, with “Test compounds are incubated with kinase, substrate, required cofactors and radioisotope labeled ATP. Following incubation, unreacted radioactive ATP is removed by washing and incorporation of the radiolabeled phosphate into the kinase substrate is assayed to detect phosphoryltransferase activity, which is directly proportional to the amount of phosphorylated substrate. Inhibition of the kinase by a kinase inhibitor prevents phosphorylation of the substrate and thereby limits the incorporation of radiolabeled phosphate. Such an assay is compatible with a microwell assay format, allowing simultaneous determination of IC50 of multiple compounds.” left out
as §2

[14] = target: ACK1 (Homo sapiens (Human), UniProt Q07912); assay: KinaseProfiler radiometric assay (14-756KP); format: biochemical; details: mean of at least two independent experiments
Excerpt: as §1, with “In” for “In another aspect, disclosed is a method of inhibiting citron kinase in a sample, comprising contacting the sample with a compound described herein (e.g., a compound of formula (I) or a pharmaceutically acceptable salt thereof), or a pharmaceutical composition described herein (e.g., a pharmaceutical composition comprising a compound of formula (I) or a pharmaceutically acceptable salt thereof), in an amount effective to inhibit citron kinase. In”

[15] = target: Mnk2 (Homo sapiens (Human), UniProt Q9HBH9); assay: KinaseProfiler radiometric assay (14-664KP); format: biochemical; details: mean of at least two independent experiments
Excerpt: as §1, with “Test compounds are incubated with kinase, substrate, required cofactors and radioisotope labeled ATP. Following incubation, unreacted radioactive ATP is removed by washing and incorporation of the radiolabeled phosphate into the kinase substrate is assayed to detect phosphoryltransferase activity, which is directly proportional to the amount of phosphorylated substrate. Inhibition of the kinase by a kinase inhibitor prevents phosphorylation of the substrate and thereby limits the incorporation of radiolabeled phosphate. Such an assay is compatible with a microwell assay format, allowing simultaneous determination of IC50 of multiple compounds.” left out
as §2

[16] = target: BIKE (Homo sapiens (Human), UniProt Q9NSY1); assay: KinaseProfiler radiometric assay (16-044KP); format: biochemical; details: mean of at least two independent experiments
Excerpt: as §1, with “Test compounds are incubated with kinase, substrate, required cofactors and radioisotope labeled ATP. Following incubation, unreacted radioactive ATP is removed by washing and incorporation of the radiolabeled phosphate into the kinase substrate is assayed to detect phosphoryltransferase activity, which is directly proportional to the amount of phosphorylated substrate. Inhibition of the kinase by a kinase inhibitor prevents phosphorylation of the substrate and thereby limits the incorporation of radiolabeled phosphate. Such an assay is compatible with a microwell assay format, allowing simultaneous determination of IC50 of multiple compounds.” left out
as §2

[17] = test system: VCaP cells; assay: Androgen-induced citron kinase expression, western blotting; format: cell-based; details: low doses of androgen, 48 hours
Description: (§3) FIG. 1A: LNCaP (top panel) and VCaP cells (bottom panel) were treated with increasing doses of the synthetic androgen R1881 for 48 hours. CIT and j-actin expression were analyzed by western blotting. FIG. 1B: LNCaP (left panel) and VCaP cells (right panel) were treated with increasing doses of the natural androgen dihydrotestosterone (DHT) and analyzed as for FIG. 1A.

[18] = test system: LNCaP cells; assay: as above; format: cell-based; details: low doses of androgen, 48 hours
Description: as §3

SMILES	IC50 [1] [µM]	IC50 [2] [µM]	IC50 [4] [µM]	IC50 [5] [µM]	IC50 [9] [µM]	other results
CC(C)C[C@H](N)C(=O)Nc1ccc(-c2ccnc3[nH]ccc23)cc1 [Compound F-8, (2S)-2-Amino-4-methyl-N-[4-(1H-pyrrolo[2,3-b]pyridin-4-yl)phenyl]pentanamide]	0.0541	0.0299				
CC(C)C[C@@H](N)C(=O)Nc1ccc(-c2ccnc3[nH]ccc23)cc1 [Compound F-9, (2R)-2-Amino-4-methyl-N-[4-(1H-pyrrolo[2,3-b]pyridin-4-yl)phenyl]pentanamide]	0.0125	0.0049	0.018	0.111	0.007	Kd [3]: 13 nM; IC50 [3]: 0.067 µM; IC50 [6]: 0.761 µM; IC50 [7]: 0.23 µM; IC50 [8]: 0.23 µM; IC50 [10]: > 3 µM
NC(C(=O)Nc1ccc(-c2ccnc3[nH]ccc23)cc1)C1CC1 (centres unmarked) [Compound F-18, 2-Amino-2-cyclopropyl-N-[4-(1H-pyrrolo[2,3-b]pyridine-4-yl)phenyl]acetamide]		0.12				
N[C@@H](Cc1ccccc1)C(=O)Nc1ccc(-c2ccnc3[nH]ccc23)cc1 [Compound F-32, (S)-N-(4-(1H-pyrrolo[2,3-b]pyridin-4-yl)phenyl)-2-amino-3-phenylpropanamide]					0.007	IC50 [6]: 1.1 µM; IC50 [7]: 0.119 µM; IC50 [8]: 0.156 µM; IC50 [10]: 0.469 µM
N[C@H](Cc1ccccc1)C(=O)Nc1ccc(-c2ccnc3[nH]ccc23)cc1 [Compound F-33, (R)-N-(4-(1H-pyrrolo[2,3-b]pyridin-4-yl)phenyl)-2-amino-3-phenylpropanamide]					0.003	IC50 [6]: 0.436 µM; IC50 [7]: 0.107 µM; IC50 [8]: 0.104 µM; IC50 [10]: 0.332 µM
Cc1cc(NC(=O)[C@H](N)CC(C)C)ccc1-c1ccnc2[nH]ccc12 [Compound F-58, (2R)-2-Amino-4-methyl-N-[3-methyl-4-(1H-pyrrolo[2,3-b]pyridin-4-yl)phenyl]pentanamide]			0.104	> 3	0.082	
Cc1cc(NC(=O)[C@H](N)C(C)(C)C)ccc1-c1ccnc2[nH]ccc12 [Compound F-59, (2R)-2-Amino-3,3-dimethyl-N-[3-methyl-4-(1H-pyrrolo[2,3-b]pyridin-4-yl)phenyl]butanamide]	0.0491		0.546	> 3	0.319	
CC(C)C[C@@H](N)C(=O)Nc1ccc(-c2ccnc3[nH]ccc23)cc1F [Compound F-70, (2R)-2-Amino-N-[2-fluoro-4-(1H-pyrrolo[2,3-b]pyridin-4-yl)phenyl]-4-methyl-Pentanamide]	0.0369		0.049	2.3	0.043	
COc1cc(-c2ccnc3[nH]ccc23)ccc1NC(=O)[C@H](N)CC(C)C [Compound F-77, (2R)-2-Amino-N-[2-methoxy-4-(1H-pyrrolo[2,3-b]pyridin-4-yl)phenyl]-4-methyl-pentanamide]			0.012	0.829	0.026	
Cc1c[nH]c2nccc(-c3ccc(NC(=O)C(N)Cc4ccccc4)cc3)c12 (centres unmarked) [Compound F-135, 2-Amino-N-[4-(3-methyl-1H-pyrrolo[2,3-b]pyridin-4-yl)phenyl]-3-phenyl-propanamide]		0.392				
Cc1cc2c(-c3ccc(NC(=O)[C@H](N)C(C)(C)O)cc3C)ccnc2[nH]1 [Compound F-140, (2R)-2-Amino-3-hydroxy-3-methyl-N-[3-methyl-4-(2-methyl-1H-pyrrolo[2,3-b]pyridin-4-yl)phenyl]butanamide]	0.04		> 3	> 3	> 3	Kd [3]: 108 nM; IC50 [3]: 0.58 µM; IC50 [11]: > 3 µM; IC50 [12]: > 3 µM; IC50 [13]: 1.91 µM; IC50 [14]: > 3 µM; IC50 [15]: 1.99 µM; IC50 [16]: > 3 µM
C[C@]1(O)CC[C@H]2[C@@H]3CCC4=CC(=O)CCC4=C3C=C[C@@]21C [Compound R1881]						citron kinase expression [17]: significant increase; citron kinase expression [18]: significant increase
